Test system: harmaline-induced tremor
Assay: harmaline-induced tremor model in rats
Assay type: in vivo
From the text: The identification of a compound as a histamine H3 inverse agonist or a histamine H3 antagonist may be readily determined without undue experimentation by methodology well known in the art. The efficacy of a histamine H3 inverse agonist or a histamine H3 antagonist in treating stroke may be readily determined without undue experimentation by methodology well known in the art, for example the harmaline-induced tremor model in rats, Sinton, et al., Pflugers Archive Eur. J. Phys., 414(1) 31-36 (1989). […] The ability of the histamine H3 inverse agonist or histamine H3 antagonist to be used in the present invention to treat stroke may be determined by these methods.

N#Cc1ccc(-c2cnc(OC3CCN(C4CCCC4)CC3)nc2)cc1 [2-(1-cyclopentylpiperidine-4-yloxy)-5-(4-cyanophenyl)pyrimidine]
reversal of harmaline-induced tremor (dose of 1 mg/kg): 8.4% | reversal of harmaline-induced tremor (dose of 3 mg/kg): 63.3% | reversal of harmaline-induced tremor (dose of 10 mg/kg): 84.4%

Source: patent US20080139614A1, “Treatment Of Stroke With Histamine H3 Inverse Agonists Or Histamine H3 Antagonists” (priority 2004, published 2008)
